PMC3138742 (PLoS ONE, 2011)

Tests used:
[1] = Body weights in xenograft studies; type: in vivo; conditions: nude mice, xenograft models, p.o. twice daily
Protocol: The mice were housed and maintained under specific-pathogen free (SPF) conditions. All animal procedures were performed according to the protocol approved by the Institutional Animal Care and Use Committee at Shanghai Institute of Materia Medica, Chinese Academy of Sciences (SIMM-AE-DJ-2010-01). Under sterile conditions, well-developed tumors were cut into 1-mm^3 fragments and transplanted s.c. into the right flank of nude mice using a trocar. When the tumor reached a volume reached 100 to 200 mm^3, the mice were randomly assigned into control and treatment groups. […] The sizes of the tumors were measured twice per week using microcalipers. The tumor volume (V) was calculated as follows: V = (length×width^2)/2. The body weights of the mice were observed simultaneously.

[2] = system: EGFR phosphorylation in A549 cells; assay: Western blot of EGF-induced EGFR phosphorylation; type: cell-based, human; conditions: 0.01 µM, 4 h, EGF 50 ng/ml 15 min
[3] = system: EGFR and ErbB2 phosphorylation in SK-OV-3 xenograft tumors; assay: Pharmacodynamic effect in tumor extracts (Western blot); type: in vivo, nude mice; conditions: SK-OV-3 tumors, single dose 100 mg/kg
Protocol: Tumors were harvested at indicated times (n = 3 per time point) after treatment, immediately frozen in liquid nitrogen, and then homogenized in 500 µL protein extraction solutions (SBS Genetech, Shanghai, China). Tumor extracts were subjected to SDS-PAGE followed by immunoblotting.
Body weights of the nude mice were measured concurrently (B). […] Tumors were harvested at the indicated times after treatment and immediately frozen in liquid nitrogen. Western blot analysis was performed to determine the levels of phosphorylated EGFR and ErbB2.

[4] = system: SK-OV-3 cells transfected with ErbB2 siRNA; assay: SRB assay after ErbB2 siRNA transfection; type: cell-based, human; conditions: SK-OV-3, ErbB2 siRNA 50 nmol/L, AST1306 6.25 µmol/L (p<0.05) or 12.5 µmol/L (p<0.01)
Description: (§1) Small interfering RNA (siRNA) against EGFR or ErbB2, as well as control siRNA, were designed and synthesized by Shanghai GenePharma Co. Ltd. One pair of ErbB2 siRNA (sequence: 5′ […] 3′), and two pairs of EGFR siRNA (#1 sequence: 5′ […] 3′; #2 sequence: 5′ […] 3′) were applied in this study. Different kind of siRNA (final concentration: 50 nmol/L) was transfected to SK-OV-3 cells with oligofectamine reagent (Invitrogen) according to the manufacturer's instruction.

NCI-H1975 cells = assay: Cell proliferation SRB assay; type: cell-based, human; conditions: NCI-H1975 cells (EGFR T790M/L858R)
Protocol: Cell viability was determined using sulforhodamine B assay. IC50 values were determined based on the results of three independent experiments. […] Whole-cell lysates were assayed for total EGFR and phosphorylation of EGFR by immunoblotting. A representative anti-GAPDH immunoblot is shown as a loading control. […] Cell viability was determined using sulforhodamine B assay.
Cell proliferation was evaluated using the SRB (Sulforhodamine B) assay as previously described. Briefly, cells were seeded into 96-well plates and grown for 24 h. […] The medium remained unchanged until the completion of the experiment. The cells were then fixed with 10% precooled trichloroacetic acid (TCA) for 1 h at 4°C and stained for 15 min at room temperature with 100 μL of 4 mg/mL SRB solution (Sigma) in 1% acetic acid. The SRB was then removed, and the cells were quickly rinsed five times with 1% acetic acid. After cells were air-dried, protein-bound dye was dissolved in 150 μL of 10 mmol/L Tris base for 5 min and measured at 515 nm using a multiwell spectrophotometer (VERSAmax, Molecular Devices). […] The IC50 value was obtained by the Logit method and was determined from the results of at least 3 independent tests.

A549 cells = assay: Cell proliferation SRB assay; type: cell-based; conditions: Homo sapiens, A549, 72 h, range given for four cell lines together, read-out: IC50 (antiproliferative)
KDR = KDR (Homo sapiens, UniProt P35968); conditions: cell-free
Protocol: (§2) The tyrosine kinase activities were determined using enzyme-linked immunosorbant assay (ELISA). The serine/threonine kinase activities were detected by Caliper Mobility Shift Assay on EZ Reader (Caliper Life Sciences, MA) according to the instruction.
(§3) The kinase domain of EGFR, ErbB-2, IGF1R, VEGFR2, FGFR1, PDGFRα, c-Src, c-Met, RON, c-Kit, EphA2 and EphB2 were expressed using the Bac-to-Bac^TM baculovirus expression system (Invitrogen, Carlsbad, CA, USA) and purified on Ni-NTA columns (QIAGEN Inc., Valencia, CA, USA). VEGFR1, PDGFRβ and c-Abl were purchased from Upstate Biotechnology Inc. (Charlottesville, Virginia, USA). […] EGF was purchased from R&D, Minneapolis, […]. Poly(Glu-Tyr)(4:1), the substrate of tyrosine kinase, was from Sigma-Aldrich Corp. St. Louis, MO, USA.
(§4) The tyrosine kinase activities were determined in 96-well ELISA plates (Corning, NY, USA) precoated with 20 μg/mL Poly (Glu,Tyr)4:1. First, 80 μL of 5 μM ATP solution diluted in kinase reaction buffer (50 mM HEPES pH 7.4, 20 mM MgCl2, 0.1 mM MnCl2, 0.2 mM Na3VO4, 1 mM DTT) was added to each well. […] Subsequently, the kinase reaction was initiated by the addition of purified tyrosine kinase proteins diluted in 10 μL of kinase reaction buffer solution. Experiments at each concentration were performed in duplicate. After incubation for 60 min at 37 °C, the plate was washed three times with phosphate buffered saline (PBS) containing 0.1% Tween 20 (T-PBS). Next, 100 μL anti-phosphotyrosine antibody (PY99, 1:500 dilution) diluted in T-PBS containing 5 mg/mL BSA was added. After 30 min incubation at 37 °C, the plate was washed three times as before. Horseradish peroxidase-conjugated goat anti-mouse IgG (100 μL) diluted 1:2000 in T-PBS containing 5 mg/ml BSA was added. The plate was reincubated at 37 °C for 30 min, and then washed with PBS.

PDGFRα = PDGFRα (Homo sapiens, UniProt P16234); conditions: cell-free
Protocol: as §2, §3, §4

RON = RON (Homo sapiens, UniProt Q04912); conditions: cell-free
Protocol: as §2, §3, §4

[5] = system: SK-OV-3 cells transfected with EGFR siRNA; assay: SRB assay after EGFR siRNA transfection; type: cell-based, human; conditions: SK-OV-3, two independent pairs of EGFR siRNAs
Description: as §1

ErbB4 = ErbB4 (Homo sapiens, UniProt Q15303); conditions: ErbB4, cell-free; means ± SD
Protocol: as §2, §4

[6] = Body weights in FVB-2/N^neu transgenic mouse study; type: in vivo; conditions: FVB-2/N^neu mice, oral twice daily for 3 wk
Description: Thirty eight- to forty four-week-old female FVB/N^neu mice were obtained from Shanghai Laboratory Animal Center. The animals were housed under specific pathogen-free conditions.

PDGFRα, sequence (P16234 593-954 limits assumed): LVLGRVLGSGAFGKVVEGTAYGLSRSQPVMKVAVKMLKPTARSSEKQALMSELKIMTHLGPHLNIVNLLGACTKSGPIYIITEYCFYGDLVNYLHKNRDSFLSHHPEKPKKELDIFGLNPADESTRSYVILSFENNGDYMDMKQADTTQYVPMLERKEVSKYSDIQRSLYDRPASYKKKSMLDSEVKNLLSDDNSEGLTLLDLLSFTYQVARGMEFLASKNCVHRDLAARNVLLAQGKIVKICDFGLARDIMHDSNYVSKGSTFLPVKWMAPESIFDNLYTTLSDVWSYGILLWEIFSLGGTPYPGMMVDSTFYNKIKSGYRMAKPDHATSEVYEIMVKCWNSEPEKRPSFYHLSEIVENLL
KDR, sequence (P35968 834-1162 limits assumed): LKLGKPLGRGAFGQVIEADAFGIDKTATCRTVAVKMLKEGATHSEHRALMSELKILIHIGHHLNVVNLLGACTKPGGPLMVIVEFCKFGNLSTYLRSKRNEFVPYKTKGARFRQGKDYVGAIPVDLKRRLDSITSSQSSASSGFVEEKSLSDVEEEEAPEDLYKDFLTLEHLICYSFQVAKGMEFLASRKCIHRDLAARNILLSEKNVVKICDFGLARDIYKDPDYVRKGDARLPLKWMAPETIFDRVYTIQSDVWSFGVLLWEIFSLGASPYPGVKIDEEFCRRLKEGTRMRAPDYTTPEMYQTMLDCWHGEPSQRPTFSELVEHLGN
RON, sequence (Q04912 1082-1345 limits assumed): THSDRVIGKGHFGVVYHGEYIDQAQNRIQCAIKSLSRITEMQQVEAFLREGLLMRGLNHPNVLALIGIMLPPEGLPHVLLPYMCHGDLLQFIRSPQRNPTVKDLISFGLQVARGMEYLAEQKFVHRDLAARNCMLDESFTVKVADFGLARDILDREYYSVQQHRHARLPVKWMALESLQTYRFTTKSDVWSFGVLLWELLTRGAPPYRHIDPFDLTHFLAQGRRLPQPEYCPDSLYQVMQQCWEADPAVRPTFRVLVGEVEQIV
ErbB4, sequence (Q15303 26-1308, species assumed): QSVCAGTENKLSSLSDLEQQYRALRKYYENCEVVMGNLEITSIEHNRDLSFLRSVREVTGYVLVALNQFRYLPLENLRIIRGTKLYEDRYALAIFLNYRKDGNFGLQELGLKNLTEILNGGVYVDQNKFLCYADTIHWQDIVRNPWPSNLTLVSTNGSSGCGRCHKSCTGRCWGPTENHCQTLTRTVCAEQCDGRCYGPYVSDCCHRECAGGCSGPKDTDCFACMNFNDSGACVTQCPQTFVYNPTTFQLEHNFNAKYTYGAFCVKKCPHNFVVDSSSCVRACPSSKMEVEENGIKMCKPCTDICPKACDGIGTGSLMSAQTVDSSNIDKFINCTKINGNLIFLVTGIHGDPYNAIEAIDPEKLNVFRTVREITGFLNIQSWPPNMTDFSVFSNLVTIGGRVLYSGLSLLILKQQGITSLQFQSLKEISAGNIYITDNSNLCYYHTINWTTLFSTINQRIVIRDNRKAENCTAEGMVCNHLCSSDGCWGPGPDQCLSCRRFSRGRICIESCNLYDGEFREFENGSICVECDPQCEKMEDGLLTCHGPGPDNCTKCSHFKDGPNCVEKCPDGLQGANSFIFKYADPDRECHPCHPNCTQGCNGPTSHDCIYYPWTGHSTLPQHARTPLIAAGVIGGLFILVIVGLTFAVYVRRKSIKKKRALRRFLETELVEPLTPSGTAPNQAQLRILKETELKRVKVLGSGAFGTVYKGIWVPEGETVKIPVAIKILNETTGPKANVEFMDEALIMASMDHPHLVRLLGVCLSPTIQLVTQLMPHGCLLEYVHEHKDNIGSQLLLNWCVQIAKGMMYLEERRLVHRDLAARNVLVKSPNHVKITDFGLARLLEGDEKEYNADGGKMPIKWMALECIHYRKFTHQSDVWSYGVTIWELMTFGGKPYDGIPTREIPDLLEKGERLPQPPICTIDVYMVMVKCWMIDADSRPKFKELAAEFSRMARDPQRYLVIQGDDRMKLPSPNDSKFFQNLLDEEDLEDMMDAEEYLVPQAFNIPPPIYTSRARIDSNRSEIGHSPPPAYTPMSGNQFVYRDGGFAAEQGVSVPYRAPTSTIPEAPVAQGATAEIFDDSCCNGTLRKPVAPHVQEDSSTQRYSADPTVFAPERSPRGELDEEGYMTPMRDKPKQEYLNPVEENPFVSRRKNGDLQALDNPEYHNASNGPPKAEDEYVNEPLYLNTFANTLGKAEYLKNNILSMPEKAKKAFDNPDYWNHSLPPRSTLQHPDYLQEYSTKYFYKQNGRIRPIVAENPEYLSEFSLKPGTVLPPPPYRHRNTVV

SMILES: C=CC(=O)Nc1ccc2ncnc(Nc3ccc(OCc4cccc(F)c4)c(Cl)c3)c2c1 [AST1306]
- body weights during treatment [1]: no obvious differences
- EGF-induced EGFR phosphorylation (phospho-EGFR bands) [2]: almost disappeared
- time to evident inhibition of EGFR and ErbB2 activation in tumors [3]: ≤ 2 h
- sensitivity to antiproliferative effect after ErbB2 knockdown [4]: significantly more resistant
- inhibition of cell growth (NCI-H1975 cells): inhibited the growth
- IC50 (A549 cells): 6.2 to 7.5 µM
- IC50 (KDR): > 10 µM
- IC50 (PDGFRα): > 10 µM
- IC50 (RON): > 10 µM
- antiproliferative activity after EGFR knockdown [5]: did not significantly affect
- IC50 (ErbB4): 0.0008 ± 0.0003 µM
- decrease of body weights during treatment [6]: less than 20%
